The results in this text go back to ChEMBL document CHEMBL4414572, “Curcumin analogues and their hybrid molecules as multifunctional drugs” (Eur J Med Chem, 2019).

Converted amounts (≈) assume the structure as drawn.

Assay [1] can be described thus: Antioxidant activity assessed as DPPH free radical scavenging activity. The assay is classed as functional.
Another assay has as its system RAW264.7. The experiment in a line: Anti-inflammatory activity in mouse RAW264.7 cells assessed as inhibition of LPS/IFN-gamma-induced nitric oxide production preincubated for 24 hrs followed by LPS/IFN-gamma-stimulation and measured after 17 hrs by Griess assay. The assay is classed as functional, cell-based. For orientation: Nitrite, measured by Griess reagent, commonly stands in for NO production.

For a further assay, the system named is U-266. The experiment in a line: Cytotoxicity against human U266 cells assessed as reduction in cell viability. The assay is classed as functional, cell-based.
The nature of assay [2]: Cytotoxicity against human […] cells assessed as reduction in cell viability. The assay is classed as functional, cell-based.
In another assay the test system is MM1.S. The experiment in a line: Cytotoxicity against human MM1S cells assessed as reduction in cell viability. The assay is classed as functional, cell-based.
For another assay, the system named is THP-1. The experiment in a line: Cytotoxicity against human THP1 cells assessed as reduction in cell viability after 24 hrs by MTT assay. The assay is classed as functional, cell-based. As to conditions: THP-1, 24 h.
For assay [3], the system named is K562. The experiment in a line: Cytotoxicity against human K562 cells assessed as reduction in cell viability after 24 hrs by MTT assay. The assay is classed as functional, cell-based. The note with it: K562, 24 h. A general note: Tetrazolium assays rely on reduction of a dye to a coloured formazan, in cell work by metabolically active cells.
For the next assay, the system named is HepG2. The experiment in a line: Cytotoxicity against human HepG2 cells assessed as reduction in cell viability after 24 hrs by MTT assay. The assay is classed as functional, cell-based. As to conditions: HepG2, 24 h.
The next assay concerns SGC-7901. The experiment in a line: Cytotoxicity against human SGC7901 cells assessed as reduction in cell viability after 24 hrs by MTT assay. The assay is classed as functional, cell-based. The note with it: SGC-7901, 24 h.
A further assay relates to A549. Kind of assay: Cytotoxicity against human A549 cells assessed as reduction in cell viability after 24 hrs by MTT assay. The assay is classed as functional, cell-based. As to conditions: A549, 24 h.
The test system of a further assay is HeLa. The experiment in a line: Cytotoxicity against human HeLa cells assessed as reduction in cell viability after 24 hrs by MTT assay. The assay is classed as functional, cell-based.
The next assay relates to L02. Kind of assay: Cytotoxicity against human LO2 cells assessed as reduction in cell viability after 24 hrs by MTT assay. The assay is classed as cell-based. The note with it: L02, 24 h.
A further assay has as its system MCF7. Kind of assay: Cytotoxicity against human MCF7 cells assessed as reduction in cell viability by MTT assay. The assay is classed as functional, cell-based.
For the next assay, the system named is MDA-MB-231. The experiment in a line: Antiproliferative activity against human MDA-MB-231 cells 24 to 48 hrs by MTT assay. The assay is classed as functional, cell-based.
The next assay concerns SW480. Kind of assay: Cytotoxicity against human SW480 cells assessed as reduction in cell viability after 24 to 48 hrs by MTT assay. The assay is classed as functional, cell-based.
Assay [4] is described as follows: Inhibition of NFkappaB (unknown origin). Also on record: species or system Homo sapiens.
Assay [5] is described as follows: Antioxidant activity assessed as DPPH free radical scavenging activity after 30 mins. The assay is classed as functional.
In assay [6] the test system is LS174T. The experiment in a line: Cytotoxicity against human LS174T cells assessed as reduction in cell viability by SRB assay. The assay is classed as functional, cell-based. (The SRB assay estimates cell density from bound dye.)
In another assay the test system is HCT-15. Kind of assay: Cytotoxicity against human HCT15 cells assessed as reduction in cell viability after 48 hrs by SRB assay. The assay is classed as functional, cell-based. The note with it: HCT-15, 48 h.
Assay [7] deals with K562. Kind of assay: Cytotoxicity against human K562 cells assessed as reduction in cell viability after 48 hrs by SRB assay. The assay is classed as functional, cell-based. The note with it: K562, 48 h.
The test system of a further assay is MIA PaCa-2. The experiment in a line: Cytotoxicity against human MIAPaCa2 cells assessed as reduction in cell viability by MTT assay. The assay is classed as functional, cell-based.
Another assay deals with PC-3. The experiment in a line: Cytotoxicity against human PC3 cells assessed as reduction in cell viability by MTT assay. The assay is classed as functional, cell-based.
In a further assay the test system is PANC-1. The experiment in a line: Cytotoxicity against human PANC1 cells assessed as reduction in cell viability by MTT assay. The assay is classed as functional, cell-based.
The test system of a further assay is Bacillus subtilis. Kind of assay: Antibacterial activity against Bacillus subtilis after 24 hrs by twofold serial dilution technique. The assay is classed as functional.
Assay [8] relates to LS174T. Kind of assay: Cytotoxicity against human LS174T cells assessed as reduction in cell viability in presence of PTX by SRB assay relative to control. The assay is classed as functional.
Assay [9] relates to LS174T. Kind of assay: Cytotoxicity against human LS174T cells assessed as reduction in cell viability in presence of PTX by SRB assay. The assay is classed as functional, cell-based.

Turning to `COc1cc(/C=C/C(=O)C(=NNc2ccc(C)cc2)C(=O)/C=C/c2ccc(O)c(OC)c2)ccc1O`, the IC50 in [1] was 0.253 µg/mL (≈ 0.52 µM).

Regarding `O=C(/C=C(O)/C=C/c1ccc(O)c(O)c1)c1ccccc1O`, in the assay on RAW264.7, the IC50 is 9.6 µM.

For `COc1cc(/C=C/C(=O)C(=Cc2ccc3c(c2)C(=O)N(C2CCC(=O)NC2=O)C3=O)C(=O)/C=C/c2ccc(O)c(OC)c2)ccc1O` (stereo not given), the IC50 in the assay with U-266 stood at 96 µM; in assay [2] it was 4.55 µM; in the assay on MM1.S, 6.44 µM.

In the case of `COc1cc(/C=C/C(=O)/C=C/c2ccc3c(c2)C(=O)N(C2CCC(=O)NC2=O)C3=O)ccc1O` (stereo not given), the values for the IC50 (in the assay with U-266; in assay [2]; in the assay with MM1.S) were 2.33 µM, 5.62 µM and 7.59 µM, respectively.

For `O=C(/C=C(O)/C=C/c1ccc(O)c(O)c1)c1cc(Cl)ccc1O`, in the assay on RAW264.7, the IC50 amounted to 4.9 µM.

With `O=C1/C(=C/c2cc(/N=C/c3ccc(O)c(O)c3O)ccc2F)CNC/C1=C\c1cc(/N=C/c2ccc(O)c(O)c2O)ccc1F`, the IC50 with THP-1, in the assay with K562 [3], in the assay with HepG2, in the assay on SGC-7901, in the assay on A549 and in the assay with HeLa was below 2 µM in each case. The IC50 with L02 is below 2 µM.

Consider `CCOC(OCC)c1ccc(/C=C2\CN(C)C/C(=C\c3ccc(C(OCC)OCC)cc3)C2=NO)cc1`, for which the IC50 with MCF7 is 0.03 µM.

On to `CN1C/C(=C\c2cn(-c3ccccc3)nc2-c2ccccc2)C(=O)/C(=C/c2cn(-c3ccccc3)nc2-c2ccccc2)C1`, for which the IC50 in the assay with MDA-MB-231 (mda-mb-231) is recorded as 20.5 ppm.

Take `O=C1/C(=C/c2cn(-c3ccccc3)nc2-c2ccc([N+](=O)[O-])cc2)CCCC/C1=C\c1cn(-c2ccccc2)nc1-c1ccc([N+](=O)[O-])cc1`: the IC50 in the assay on MDA-MB-231 (mda-mb-231) was determined as 32.4 ppm.

In turn, `COc1ccc(-c2nn(-c3ccccc3)cc2/C=C2\CCCC/C(=C\c3cn(-c4ccccc4)nc3-c3ccc(OC)cc3)C2=O)cc1` came in with an IC50 with MDA-MB-231 (mda-mb-231) of 75.8 ppm.

Regarding `O=C(/C=C/c1c[nH]c2ccccc12)CC(=O)/C=C/c1c[nH]c2ccccc12`, the IC50 in the assay on SW480 was 15 to 17 µM.

For the molecule `C=CC(=O)NC(c1ccccc1)C(C(=O)/C=C/c1cccc(O)c1)C(=O)/C=C/c1cccc(O)c1` (stereo not given), in assay [4], the IC50 was found to be 2.8 µg/mL (≈ 5.99 µM).

Turning to `COc1ccc(-c2nn(-c3ccccc3)cc2/C=C2\CN(C)C/C(=C\c3cn(-c4ccccc4)nc3-c3ccc(OC)cc3)C2=O)cc1`, the IC50 in the assay with MDA-MB-231 (mda-mb-231) is 39.9 ppm; in assay [5], 6400 µM.

On to `O=C1NC(/C=C/c2ccccc2)=NC/1=C\C=C\c1ccccc1`, for which the IC50 in the assay with LS174T [6] amounted to 8.9 µM.

`COc1cc(CCc2cc(CCc3ccc(OC(C)=O)c(OC)c3)on2)ccc1OC(C)=O`: the IC50 with HCT-15 came out at 2.8 µM; with K562 [7], 3 µM.

On to `O=C(/C=C/c1cn(-c2ccccc2)nc1-c1ccc([N+](=O)[O-])cc1)/C=C/c1cn(-c2ccccc2)nc1-c1ccc([N+](=O)[O-])cc1`, for which the IC50 in the assay with MDA-MB-231 (mda-mb-231) was 50.4 ppm.

Consider `CN1C/C(=C\c2ccc(N(C)C)cc2[N+](=O)[O-])C(=NO)/C(=C/c2ccc(N(C)C)cc2[N+](=O)[O-])C1`, for which the IC50 in the assay on MIA PaCa-2, with PC-3, with MCF7 and with PANC-1 was 0.02 µM throughout.

What is called MIC is the lowest concentration found to suppress growth. Lower therefore signals greater potency. In the assay on Bacillus subtilis, `CCN1N=C(C(=NNc2ccccc2)C2=NN(CC)C(c3ccc(O)c(OC)c3)C2)CC1c1ccc(O)c(OC)c1` (stereo not given) yielded an MIC of 3.12 µg/mL (≈ 5.61 µM).

On to `O=C1/C(=C/c2cn(-c3ccccc3)nc2-c2ccccc2)CN(Cc2ccccc2)C/C1=C\c1cn(-c2ccccc2)nc1-c1ccccc1`, for which the IC50 with MDA-MB-231 (mda-mb-231) came to 45.1 ppm.

Regarding `O=C1/C(=C/c2cn(-c3ccccc3)nc2-c2ccccc2)CCCC/C1=C\c1cn(-c2ccccc2)nc1-c1ccccc1`, in the assay on MDA-MB-231 (Homo sapiens, MDA-MB-231), the IC50 was found to be 11.6 µM.

As to `O=C1/C(=C/c2cn(-c3ccccc3)nc2-c2ccccc2)CNC/C1=C\c1cn(-c2ccccc2)nc1-c1ccccc1`, the IC50 in assay [5] stood at 10500 µM.

`COc1cc(/C=C/C=C2N=C(/C=C/c3ccccc3)NC\2=O)ccc1O`: in the assay with LS174T [6], the IC50 came to 7.6 µM. The Activity in the assay on LS174T [8] is listed as 2.5 - 45.7%.

Turning to `CCCNC(=O)/C(=C/C=C/c1ccccc1)NC(=O)/C=C/c1ccccc1`, the IC50 in the assay on LS174T [9] is 0.0038 µM. The Activity in the assay with LS174T [8] worked out at 16.2%.
